Like-named read-outs stand apart in the source and are kept apart here.
Key:
HIV = conditions: PBMCs (Anderson 2012); cited from earlier work
HIV-1 = conditions: cited from earlier work
[1] = in vivo, po
Description: Antiretroviral concentrations in whole blood or plasma are potentially useful in monitoring adherence to PrEP.

[2] = in vivo; cited from earlier work

## CC(Cn1cnc2c(N)ncnc21)OCP(=O)(O)OP(=O)(O)OP(=O)(O)O (stereo in doubt) [tenofovir-diphosphate]
HIV
  intracellular concentration associated with a 90% reduction in HIV acquisition relative to the placebo arm: 16 fmol per million peripheral blood mononuclear cells (PBMCs)

## C[C@H](Cn1cnc2c(N)ncnc21)OCP(=O)(O)O [Tenofovir]
HIV-1; 2 doses per week
  HIV-1 risk reduction corresponding to intracellular tenofovir concentrations: 76%
HIV-1; 4 doses per week
  HIV-1 risk reduction corresponding to intracellular tenofovir concentrations: 96%
HIV-1; 7 doses per week
  HIV-1 risk reduction corresponding to intracellular tenofovir concentrations: 99%
[1]
  window of medication usage reflected by TFV detection in whole blood or plasma: one to at least seven days
[2]
  intracellular half-life: 150 h
  plasma half-life: 17 h
